Starred links: 1 amine or outer side, 2 acyl side, 3 side chain; linkers in the order of their positions; H or OH if unused. Positions of bridges follow the written chain, without caps; N, C: chain ends. Non-standard residues stand in square brackets, D forms with d. Residues, ends and D or L forms follow the SMILES beside them. Chains are numbered I, II in the order given. Actinocin(9to1) = Cc1c2oc3c(C)ccc(C(=O)[*:1])c3nc-2c(C(=O)[*:2])c(N)c1=O; NMeV = CN[C@H](C(=O)O)C(C)C; Sar = CNCC(=O)O
Assays:
Cyr61 [1] = experiment: Cyr61 mRNA expression in MDA-MB-231 cells (Northern blot); type: cell-based, human; conditions: AR- MDA-MB-231 cells
Description: (§1) Incubation and analysis were performed according to techniques described in Example 1.
(§2) Total cellular RNA was isolated from cultured adenocarcinoma cells by guanidium isothiocynate lysis followed by phenol/chloroform extraction.

Cyr61 [2] = experiment: Cyr61 mRNA expression in ZR-75-1 cells (Northern blot); type: cell-based, human
Description: as §1, §2

Cyr61 [3] = experiment: Cyr61 mRNA/protein expression in MCF-7 cells (Northern/Western blot); conditions: for block of 17β-estradiol upregulation of Cyr61: co-treatment with 17β-estradiol
Cyr61 [4] = experiment: Cyr61 mRNA/protein expression in T47D cells (Northern/Western blot)
Cyr61 [5] = experiment: Cyr61 mRNA/protein expression in MDA-MB-453 cells (Northern/Western blot); type: cell-based, human; conditions: for effect on DHT induction of Cyr61: co-treatment with 1 nM DHT

Q: For “EGF: epidermal growth factor (NSDSECPLSHDGYCLHDGVCMYIEALDKYACNCVVGYIGERCQYRDLKWWELR; UniProt P01133 971-1023, looked up)”, which “expression of Cyr61” value (Cyr61 [1]) is on record?
A: The value was “rapidly induced”.

Q: And the “time to maximal levels of Cyr61 mRNA” value (Cyr61 [2])?
A: Its value is ≤ 0.5 h.

Q: How did the “upregulation of Cyr61 mRNA” value (Cyr61 [3]) turn out when `C[C@]12CC[C@@H]3c4ccc(O)cc4CC[C@H]3[C@@H]1CC[C@@H]2O` [17β-estradiol] was run?
A: Its value is “upregulation”.

Q: And the “effects of EGF on mRNA transcription” value (Cyr61 [3]; with EGF)?
A: The value was “stimulates”.

Q: Which results are given for `CCC(=O)[C@@]1(C)CC[C@H]2[C@@H]3CCC4=CC(=O)CCC4=C3CC[C@@]21C` [R5020]?
A: induction of Cyr61 mRNA transcription (Cyr61 [4]): dose-dependent manner; effects of EGF on mRNA transcription (Cyr61 [4]; with EGF): stimulates

Q: With `C[C@]12CCC(=O)C[C@@H]1CC[C@@H]1[C@@H]2CC[C@]2(C)[C@@H](O)CC[C@@H]12` [DHT] as the compound, how does the “maximum expression of Cyr61 mRNA and protein” value (Cyr61 [5]) read?
A: The value was 8 fold.

Q: And the “time of maximum expression of Cyr61 mRNA and protein” value (Cyr61 [5])?
A: The value was ≤ 0.5 h.

Q: What about the “concentration of maximal expression of Cyr61 mRNA and protein” value (Cyr61 [5]; dose-dependent) of the same compound?
A: Its value is 1.0 nM.

Q: And the EC50 (Cyr61 [5]; read-out: EC50 for upregulation of Cyr61 mRNA and protein)?
A: Its EC50 is ~0.3 nM.

Q: And the “expression of Cyr61” value (Cyr61 [1])?
A: The value was “not enhanced”.

Q: And the “induction of Cyr61” value (Cyr61 [2])?
A: The value was “lack of induction”.

Q: `CC(C)(O)C(=O)Nc1ccc([N+](=O)[O-])c(C(F)(F)F)c1` [2-OH flutamide] was tested. Which “effect on DHT induction of Cyr61” value (Cyr61 [5]) did it give?
A: Its value is “completely abrogated”.

Q: For `C[C@@H]1C[C@@H]([C@H](O)CC2CC(=O)NC(=O)C2)C(=O)[C@@H](C)C1` [cycloheximide], which “Cyr61 mRNA on co-treatment with DHT compared to DHT treatment alone” value (Cyr61 [5]) is on record?
A: The value was “significant overexpression”.

Q: What about the “effect on DHT induction of Cyr61” value (Cyr61 [5]) of the same compound?
A: Its value is “not observed”.

Q: And the “block of 17β-estradiol upregulation of Cyr61” value (Cyr61 [3])?
A: Its value is “not”.

Q: How did the “effect on DHT induction of Cyr61” value (Cyr61 [5]) turn out when `Cc1c2oc3c(C)ccc(C(=O)N[C@@H]4C(=O)N[C@H](C(C)C)C(=O)N5CCC[C@H]5C(=O)N(C)CC(=O)N(C)[C@@H](C(C)C)C(=O)O[C@@H]4C)c3nc-2c(C(=O)N[C@@H]2C(=O)N[C@H](C(C)C)C(=O)N3CCC[C@H]3C(=O)N(C)CC(=O)N(C)[C@@H](C(C)C)C(=O)O[C@@H]2C)c(N)c1=O` [actinomycin D] (I: T[dV]P[Sar][NMeV] / II: T[dV]P[Sar][NMeV]; ester I:1-I:C, II:1-II:C; linker I:N-II:N via Actinocin(9to1)) was run?
A: Its value is “completely blocked”.

Q: What about the “block of 17β-estradiol upregulation of Cyr61” value (Cyr61 [3]) of the same compound?
A: Its value is “fully blocked”.

Q: What about the “block of R5020 upregulation of Cyr61” value (Cyr61 [4]; co-treatment with R5020) of the same compound?
A: Its value is “fully blocked”.
